{"source": "patent EP0430991B1", "about": "“REAGENT FOR USE IN LD-1 ASSAY” (BOEHRINGER MANNHEIM CORPORATION, priority 1988, dated 1990)", "key": {"[1]": {"tested_on": "LD-2,3,4,5 (sample contains LD(2), LD(3), LD(4), and LD(5) isoenzymes with 43% of LD(4))", "test": "LD isoenzyme inactivation, automated analyzer rate assay (lactate/NAD, 340 nm)", "assay_type": "biochemical, human", "settings": "Lithium L-Lactate 90 mM, pH 9.6", "experimental": "A. Materials: • 1. […] LD isoenzymes. […] Patient serum samples were obtained from a local hospital. […] Factor: -10470 C. Manual Procedure Instrument: Spectrophotometer Temperature: 37 degrees C. Wavelength: 340 nm 1. […] Pipette the following reagents in a cuvette:\n3. Mix and equilibrate sample to 37 degrees C. 4. […] Calculate A/min. from 2 to 4 minutes. This is A/min for the sample. 5. […] This is A/min. for the blank. 6. […] F. Experimental Results 1. […] LD-1 isoenzyme was tested at several concentrations. […]\nA. Materials • 1. […] LD isoenzymes: Same as described in Example 1. […] C. Manual Procedure Same as described in Example 1. […]\nA. Materials • 1. […] Patient serum samples are obtained from a local hospital. […] C. Manual Procedure Same as described in Example 1. […] Table"}, "[2]": {"molecular_target": "T1, lactate dehydrogenase isoenzyme LD-2, H(3)M (Homo sapiens, UniProt P00338+P07195)", "T1 construct": "purchased Aalto, Escondido, CA", "test": "LD isoenzyme inactivation, automated analyzer rate assay (lactate/NAD, 340 nm)", "assay_type": "biochemical", "settings": "for LD-1 ISOENZYME REAGENT (Recovery): Lithium L-Lactate 90 mM, pH 9.6", "experimental": "(§1) A. Materials: • 1. Reagent I. contains Lithium L-Lactate (90mM), guanadine thiocyanate (240 mM), Tris buffer (112.6 mM) at pH 9.5. • 2. Reagent II. contains Na(2)SO(4) (40 mM) and NAD (53.76 mM). Reaction mixture is a combination of 2.0 ml of R-1, 0.5 ml of R-2 which has a final reaction pH of 8.9 • 3. LD isoenzymes. Pure LD-1, LD-2, LD-3 and LD-5 individual isoenzymes were obtained from Aalto of Escondido, CA. Patient serum samples were obtained from a local hospital. B. Procedures Using Automated Analyzer Tests were performed on a Boehringer Mannheim/Hitachi 705 analyzer. The analyzer was given the following parameters: Assay Code: Rate - 20-26 (equivalent to 84.62 seconds to 198.70 seconds) Sample Volume: 12 µl R1 Volume: 400 µl R2 Volume: 100 µl Wavelength 1: 376 nm Wavelength 2: 340 nm Temperature: 37 degrees C. Factor: -10470 C. Manual Procedure Instrument: Spectrophotometer Temperature: 37 degrees C. Wavelength: 340 nm 1. Zero spectrophotometer with distilled or deionized water (DI HOH) 2. Pipette the following reagents in a cuvette:\n(§2) 3. Mix and equilibrate sample to 37 degrees C. 4. Pipette and add 0.5 ml of R2 into sample test tube. Mix and measure optical density change at 340 nm for about 6 minutes. Calculate A/min. from 2 to 4 minutes. This is A/min for the sample. 5. Repeat steps 2 to 4 for the blank using 0.060 ml DI HOH as sample. This is A/min. for the blank. 6. Calculate for U/L (U/L = units of LDH activity per liter) U/L = (A/min Sample - A/min blank) x 1000 x 2.56 6.22 x light path x 0.06 [formula] D. Protocol for the Electrophoretic Analysis • 1. About 630 to 1,000 µl of individual LD-1, LD-2, LD-3, LD-4, LD-5 and abnormal patient serum samples were used in the electrophoretic analysis. • 2. 12 µl sample was added to […] R1 and incubated for 4 minutes at 37 degrees C to inhibit LD-2 to LD-5 to achieve an inhibited sample. • 3. Another 12 µl sample was added to 400 ul of Tris buffer (112.6 mM, pH at 8.9-9.0) and incubated for 4 minutes at 37 degrees C to achieve a control sample. • 4. Both the inhibited and control samples were applied to the Beckman Paragon Gel and the electrophoresis was run according to the Beckman procedure specified for the gel using a Beckman Paragon Electrophoresis instrument from Beckman Instrument. E. Method for Comparison Sixty-eight patient samples with LD-1 activity from 30 to 800 U/L were tested to compare the selectivity of R1 with the immunochemical separation method Roche's Isomune LD-1 reagent was employed for the immunochemical separation. F. Experimental Results 1. LD isoenzymes were tested using the Automated Analyzer procedure described above. […] LD-1 isoenzyme was tested at several concentrations. […]\n(§3) A. Materials • 1. Reagent I: contains Lithium L-Lactate (90 mM), guanidine HCl (240 mM), sodium thiocyanate (240 mM) Tris buffer (119 mM) and Na(2)Co(3) (12.5 mM) at pH 9.6. • 2. Reagent II: contains Na(2)SO(4) (40 mM) and NAD (53.76 mM). Reaction mixture is a combination of 2.0 ml of R-1, 0.5 ml of R-2 which has final reaction pH at 8.9. • 3. LD isoenzymes: Same as described in Example 1. B. Procedures using Automated Analyzer Same as described in Example 1. C. Manual Procedure Same as described in Example 1. […]\n(§4) A. Materials • 1. Reagent I: contains Lithium L-Lactate (90 mM), guanidine-HCL Na(2)Co(3) (12.5mM), Tris buffer (119 mM) at pH 9.6. • 2. Reagent II: contains Na(2)SO(4) (40 mM) and NAD (53.76 Mm). Reaction mixture is a combination of 2.0 ml of R-1, 0.5 ml of R-2 which has final reaction reaction pH at 8.9. • 3. LD isoenzymes: pure LD-1, LD-2, LD-3 and LD-5 individual isoenzymes are obtained from Aalto, Escondido, CA. Patient serum samples are obtained from a local hospital. B. Procedures using Automated Analyzer Same as described in Example 1. C. Manual Procedure Same as described in Example 1. […] Table\n(§5) A. Materials • 1. Reagent I: contains Lithium L-Lactate (90 mM), NaSCN (240 mM) Na(2)Co(3) (12.5 mM), Tris buffer (119 mM) at pH 9.6. • 2."}, "[3]": {"molecular_target": "lactate dehydrogenase isoenzyme LD-5, M(4) (Homo sapiens, UniProt P00338)", "test": "LD isoenzyme inactivation, automated analyzer rate assay (lactate/NAD, 340 nm)", "assay_type": "biochemical", "settings": "for LD-1 ISOENZYME REAGENT (Recovery): Lithium L-Lactate 90 mM, pH 9.6", "experimental": "as §1, §2, §3, §4, §5"}, "[4]": {"molecular_target": "T2, lactate dehydrogenase isoenzyme LD-3, H(2)M(2) (Homo sapiens, UniProt P00338+P07195)", "T2 construct": "purchased Aalto, Escondido, CA", "test": "LD isoenzyme inactivation, automated analyzer rate assay (lactate/NAD, 340 nm)", "assay_type": "biochemical", "settings": "Lithium L-Lactate 90 mM, pH 9.6", "experimental": "as §1, §2, §3, §4, §5"}, "[5]": {"molecular_target": "lactate dehydrogenase isoenzyme LD-1, H(4) (Homo sapiens, UniProt P07195)", "test": "biochemical", "settings": "for LD-1 ISOENZYME REAGENT (Recovery): Lithium L-Lactate 90 mM, pH 9.6; for activity at 240000 µM: R1: guanadine thiocyanate 240 mM, Lithium L-Lactate 90mM, Tris 112.6 mM, pH 9.5, 37 degrees C", "experimental": "as §1, §2, §3, §4, §5"}, "[6]": {"molecular_target": "lactate dehydrogenase isoenzyme LD-4, HM(3) (Homo sapiens, UniProt P00338+P07195)", "test": "LD isoenzyme inactivation, automated analyzer rate assay (lactate/NAD, 340 nm)", "assay_type": "biochemical", "settings": "R1: guanadine thiocyanate 240 mM, Lithium L-Lactate 90mM, Tris 112.6 mM, pH 9.5; 37 degrees C; read-out: Activity After R1 Treatment (% of Total LDH Reagent)", "experimental": "as §1\n3. Mix and equilibrate sample to 37 degrees C. 4. Pipette and add 0.5 ml of R2 into sample test tube. Mix and measure optical density change at 340 nm for about 6 minutes. Calculate A/min. from 2 to 4 minutes. This is A/min for the sample. 5. Repeat steps 2 to 4 for the blank using 0.060 ml DI HOH as sample. This is A/min. for the blank. 6. […]"}, "[7]": {"settings": "Reagent I: guanidine-HCL (concentration not given), no thiocyanate"}, "[8]": {"settings": "R1: guanadine thiocyanate 240 mM, Lithium L-Lactate 90mM, Tris 112.6 mM, pH 9.5, 37 degrees C, read-out: Activity After R1 Treatment (% of Total LDH Reagent)"}, "[9]": {"settings": "Reagent I: NaSCN 240 mM, no guanidine"}}, "note": "Structures can show the parent of a compound that is named as a salt. Where two headings read alike, the source gives them in different places."}
{"compound": "N=C(N)N", "note": "[GUANIDINE HCL, guanidine HCl]", "values": [{"measurement": "LD-1 ISOENZYME REAGENT (Recovery)", "setting": "[1]; [7]", "value": "1102 ( 81.2 %)"}, {"measurement": "LD-1 ISOENZYME REAGENT (Recovery)", "setting": "[2]; [7]", "value": "826 (106 %)"}, {"measurement": "LD-1 ISOENZYME REAGENT (Recovery)", "setting": "[3]; [7]", "value": "159 ( 9.50%)"}, {"measurement": "LD-1 ISOENZYME REAGENT (Recovery)", "setting": "[4]; [7]", "value": "1323 (102 %)"}, {"measurement": "LD-1 ISOENZYME REAGENT (Recovery)", "setting": "[5]; LD-1 sample 1X, Reagent I: guanidine-HCL (concentration not given), no thiocyanate", "value": "202 (110 %)"}, {"measurement": "LD-1 ISOENZYME REAGENT (Recovery)", "setting": "[5]; LD-1 sample 2X, Reagent I: guanidine-HCL (concentration not given), no thiocyanate", "value": "394 (107 %)"}, {"measurement": "LD-1 ISOENZYME REAGENT (Recovery)", "setting": "[5]; LD-1 sample 4X, Reagent I: guanidine-HCL (concentration not given), no thiocyanate", "value": "759 (107 %)"}, {"measurement": "LD-1 ISOENZYME REAGENT (Recovery)", "setting": "[5]; LD-1 sample 6X, Reagent I: guanidine-HCL (concentration not given), no thiocyanate", "value": "1123 (106 %)"}]}
{"compound": "N=C(N)N", "note": "[guanadine thiocyanate]", "values": [{"measurement": "activity at 240000 µM", "setting": "[2]; [8]", "value": 1.1, "unit": "%"}, {"measurement": "activity at 240000 µM", "setting": "[3]; [8]", "value": 0, "unit": "%"}, {"measurement": "activity at 240000 µM", "setting": "[6]", "value": 0, "unit": "%"}, {"measurement": "activity at 240000 µM", "setting": "[5]; pH 9.5, read-out: Activity After R1 Treatment (% of Total LDH Reagent), LD-1 sample 1x", "value": 98, "unit": "%"}, {"measurement": "activity at 240000 µM", "setting": "[5]; pH 9.5, read-out: Activity After R1 Treatment (% of Total LDH Reagent), LD-1 sample 2x", "value": 100, "unit": "%"}, {"measurement": "activity at 240000 µM", "setting": "[5]; pH 9.5, read-out: Activity After R1 Treatment (% of Total LDH Reagent), LD-1 sample 4x", "value": 100, "unit": "%"}, {"measurement": "activity at 240000 µM", "setting": "[5]; pH 9.5, read-out: Activity After R1 Treatment (% of Total LDH Reagent), LD-1 sample 6x", "value": 102, "unit": "%"}]}
{"compound": "sodium thiocyanate [NaSCN]", "values": [{"measurement": "LD-1 ISOENZYME REAGENT (Recovery)", "setting": "[1]; [9]", "value": "725 ( 53 %)"}, {"measurement": "LD-1 ISOENZYME REAGENT (Recovery)", "setting": "[2]; [9]", "value": "905 (116 %)"}, {"measurement": "LD-1 ISOENZYME REAGENT (Recovery)", "setting": "[3]; [9]", "value": "44 ( 2.6%)"}, {"measurement": "LD-1 ISOENZYME REAGENT (Recovery)", "setting": "[4]; [9]", "value": "1093 ( 85 %)"}, {"measurement": "LD-1 ISOENZYME REAGENT (Recovery)", "setting": "[5]; LD-1 sample 1X, Reagent I: NaSCN 240 mM, no guanidine", "value": "252 (138 %)"}, {"measurement": "LD-1 ISOENZYME REAGENT (Recovery)", "setting": "[5]; LD-1 sample 2X, Reagent I: NaSCN 240 mM, no guanidine", "value": "499 (136 %)"}, {"measurement": "LD-1 ISOENZYME REAGENT (Recovery)", "setting": "[5]; LD-1 sample 4X, Reagent I: NaSCN 240 mM, no guanidine", "value": "964 (134 %)"}, {"measurement": "LD-1 ISOENZYME REAGENT (Recovery)", "setting": "[5]; LD-1 sample 6X, Reagent I: NaSCN 240 mM, no guanidine", "value": "1421 (134 %)"}]}
